Results as given in ChEMBL document CHEMBL1201862, “PubChem BioAssay data set” (2004).
One block for each compound: values may come before it. Active and inactive are the calls of the source.

Assays:
[1] = inhibitors of Vif binding to APOBEC3G peptide, primary screen, biochemical, TR-FRET, GST-Vif 1-94, biotin-A3G peptide, dose response retest (AID 1117319); type: functional;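 further: TR-FRET signal of purified GST-Vif binding a biotinylated A3G peptide; inhibitors lower the FRET signal by blocking Vif and A3G binding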
[2] = target: Mitogen-activated protein kinase 10 (Homo sapiens, UniProt P53779); experiment: Dose response biochemical screening assay for inhibitors of c-Jun N-Terminal Kinase 3 (JNK3). [Related pubchem assays: 746 ]
[3] = P. falciparum late gametocyte killing, dose response, luminescence (AID 1117278); type: functional, cell-based;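 further: gametocytes exposed to compound for 24 hours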
[4] = Jurkat T cell cytotoxicity, dose response, cytotoxicity control for P. falciparum gametocyte viability project, luminescence (AID 1117277); type: functional, cell-based;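 further: potency reflects loss of cellular ATP meaning fewer viable cells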
[5] = target: T1, Aryl hydrocarbon receptor (Homo sapiens, UniProt P35869); experiment: Luminescence-based cell-based high throughput dose response assay for activators of the Aryl Hydrocarbon Receptor (AHR). [Related pubchem assays: 2796 (Primary screen (AHR activators in singlicate)), 2845 (Confirmation screen (AHR activators in triplicate)), 434939 (Counterscreen (PXR activators in triplicate)), 2804 (Summary (AHR activators))]; type: ADME
T1 sequence (P35869 whole entry): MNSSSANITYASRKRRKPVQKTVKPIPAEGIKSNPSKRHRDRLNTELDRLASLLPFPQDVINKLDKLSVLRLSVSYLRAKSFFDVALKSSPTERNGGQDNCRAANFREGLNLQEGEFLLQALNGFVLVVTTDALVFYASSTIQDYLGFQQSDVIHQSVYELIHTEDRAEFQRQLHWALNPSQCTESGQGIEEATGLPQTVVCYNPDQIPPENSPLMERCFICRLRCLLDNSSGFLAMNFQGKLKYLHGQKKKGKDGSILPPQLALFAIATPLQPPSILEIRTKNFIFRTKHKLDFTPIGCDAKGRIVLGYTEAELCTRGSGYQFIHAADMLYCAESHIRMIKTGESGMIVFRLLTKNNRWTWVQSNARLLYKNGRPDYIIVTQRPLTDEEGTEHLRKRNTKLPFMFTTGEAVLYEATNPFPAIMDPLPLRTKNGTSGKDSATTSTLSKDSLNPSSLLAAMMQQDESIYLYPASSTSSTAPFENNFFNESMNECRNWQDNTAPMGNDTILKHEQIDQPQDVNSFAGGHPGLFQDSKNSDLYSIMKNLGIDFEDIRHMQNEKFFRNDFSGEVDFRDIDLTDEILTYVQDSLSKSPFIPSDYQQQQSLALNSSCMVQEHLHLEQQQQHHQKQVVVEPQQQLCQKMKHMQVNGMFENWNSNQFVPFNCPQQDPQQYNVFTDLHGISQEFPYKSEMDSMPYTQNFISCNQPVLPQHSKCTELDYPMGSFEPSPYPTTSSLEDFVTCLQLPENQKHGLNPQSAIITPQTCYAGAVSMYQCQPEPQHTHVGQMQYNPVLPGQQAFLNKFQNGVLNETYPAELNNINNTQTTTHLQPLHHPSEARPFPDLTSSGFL

[6] = cytotoxicity toward NIH3T3 fibroblasts, dose response, counter-screen, cell-based, ATP luminescence, mouse fibroblasts (AID 2010); type: functional;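 further: cells exposed to compound for about 90 hours before reading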
[7] = target: Sphingosine 1-phosphate receptor 2 (Homo sapiens, UniProt O95136); experiment: Dose Response Cell Based Assay for Antagonists of the S1P2 Receptor. [Related pubchem assays: 856, 736 ]; type: functional
[8] = inhibitors of intracellular T. cruzi replication, confirmation, NIH3T3 host cells, beta-gal luminescence (AID 2044); type: functional, cell-based;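 further: intracellular parasites grown in NIH/3T3 mouse fibroblasts as host cells; luminescent beta-galactosidase reporter signal from transgenic T. cruzi replicating inside host cells; inhibitors lower the luminescence signal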
[9] = HCT116 cell viability decrease, GSK3B pretreatment – CellTiter-Glo, IC50, dose response (AID 1117339); type: functional; conditions: HCT-116
[10] = Concentration-dependent survival of SW480 colon cancer line, luminescence detection with CellTiter-Glo, half-maximal inhibitory concentration (AID 1117338); type: functional
[11] = cytotoxicity toward HCT116 cells – cell-based, CellTiter-Glo luminescence, IC50, dose response (AID 1117332); type: functional; conditions: HCT-116
[12] = SNU-C1 cell viability reduction, dose response, CellTiter-Glo luminescence (AID 1117323); type: functional, cell-based
[13] = cytotoxicity toward HT-29 cells – cell-based, CellTiter-Glo luminescence, IC50, dose response (AID 1117330); type: functional
[14] = CellTiter-Glo luminescent dose response of DLD-1 viability loss (AID 1117352); type: functional
[15] = cytotoxicity toward Colo320 cells – cell-based, CellTiter-Glo luminescence, IC50, dose response (AID 1117334); type: functional; conditions: COLO 320
[16] = RKO cell viability reduction, dose response, CellTiter-Glo luminescence (AID 1117322); type: functional

Chain of Mitogen-activated protein kinase 10 (P53779 whole entry): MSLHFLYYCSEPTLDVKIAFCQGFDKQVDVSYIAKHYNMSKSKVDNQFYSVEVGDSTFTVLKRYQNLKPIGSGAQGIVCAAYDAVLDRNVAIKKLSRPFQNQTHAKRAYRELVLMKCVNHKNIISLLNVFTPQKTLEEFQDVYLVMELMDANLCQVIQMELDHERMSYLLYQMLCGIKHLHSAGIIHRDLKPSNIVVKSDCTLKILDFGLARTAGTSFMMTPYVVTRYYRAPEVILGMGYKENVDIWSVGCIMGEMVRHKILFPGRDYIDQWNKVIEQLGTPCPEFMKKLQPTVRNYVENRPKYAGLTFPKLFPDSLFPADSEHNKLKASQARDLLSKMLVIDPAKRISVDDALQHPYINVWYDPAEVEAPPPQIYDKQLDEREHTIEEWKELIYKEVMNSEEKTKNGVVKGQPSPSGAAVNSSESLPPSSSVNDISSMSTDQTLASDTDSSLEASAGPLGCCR
Chain of Sphingosine 1-phosphate receptor 2 (O95136 whole entry): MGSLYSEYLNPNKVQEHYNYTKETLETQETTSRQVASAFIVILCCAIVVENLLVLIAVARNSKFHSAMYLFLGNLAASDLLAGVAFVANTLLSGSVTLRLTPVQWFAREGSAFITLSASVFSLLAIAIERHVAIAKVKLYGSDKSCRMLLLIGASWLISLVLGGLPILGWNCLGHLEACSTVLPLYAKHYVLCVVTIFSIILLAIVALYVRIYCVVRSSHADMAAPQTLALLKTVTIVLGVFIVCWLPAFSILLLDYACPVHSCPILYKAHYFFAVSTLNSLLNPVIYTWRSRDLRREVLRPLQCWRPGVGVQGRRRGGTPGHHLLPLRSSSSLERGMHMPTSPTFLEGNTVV

IC50 [1]: > 100 µM (active)
SMILES: CCC(CC)c1nc2cc(OC)c(OC)cc2c(=O)o1

IC50 [2]: 11.3 µM (not active)
SMILES: Cc1cc(NC(=O)CSC2=Nc3ccccc3C3=NC(Cc4ccccc4)C(=O)N23)[nH]n1 (centres undefined)

EC50 [5]: 0.0686 µM (active)
SMILES: COc1ccccc1NC(=O)c1ccc(C(=O)Nc2ccccc2OC)nc1

IC50 [2]: 60.1 µM (not active)
SMILES: COC(=O)c1c(C#N)c(N)nc2c1CCCC2

The next lines start with the compound.

SMILES: Cc1cc(C)cc(N2CC(C(=O)O)CC2=O)c1 (centres undefined)
IC50 [3]: > 109 µM (inactive) | IC50 [4]: > 83.4 µM (inactive)

SMILES: Cn1c(-c2c(N)n(CCCc3ccccc3)c3nc4ccccc4nc23)nc2ccccc21
EC50 [6]: > 30 µM (not active) | IC50 [7]: 8 µM (active) | EC50 [8]: 1.17 µM (active)

SMILES: O=C(Cc1ccc(-c2ccccc2)cc1)NC1CCCC1
IC50 [3]: > 109 µM (inactive) | IC50 [4]: > 83.2 µM (inactive)

SMILES: CCC=CCC=CCC=CCCCCCCCC(=O)O
IC50 [9]: > 20 µM (inactive) | IC50 [10]: > 20 µM (inactive) | IC50 [11]: > 20 µM (inactive) | IC50 [12]: > 20 µM (inactive) | IC50 [13]: > 20 µM (inactive) | IC50 [14]: > 20 µM (inactive) | IC50 [15]: > 20 µM (inactive) | IC50 [16]: > 20 µM (inactive)
